# Legend:
# [1] = biological target: T1, HCV NS5B RdRp genotype 1b (Hepatitis C virus genotype 1b, UniProt Q9WMX2); experiment: Modified HCV NS5B RdRp enzyme assay (preincubation protocol); format: biochemical
# T1 construct: The protein was expressed with an 18 amino acid C-terminal truncation to enhance the solubility; made in house; host or cells: E. coli BL21(DE3), pET21a vector
# Method: HCV NS5B RdRp Cloning, Expression, and Purification.
# The cDNA encoding the NS5B protein of HCV, genotype 1b, was cloned into the pET21a expression vector. The protein was expressed with an 18 amino acid C-terminal truncation to enhance the solubility. The E. coli competent cell line BL21(DE3) was used for expression of the protein. Cultures were grown at 37° C. for ˜4 hours until the cultures reached an optical density of 2.0 at 600 nm. The cultures were cooled to 20° C. and induced with 1 mM IPTG. Fresh ampicillin was added to a final concentration of 50 μg/ml and the cells were grown overnight at 20° C.
# Cell pellets (3 L) were lysed for purification to yield 15-24 mgs of purified NS5B. The lysis buffer consisted of 20 mM Tris-HCl, pH 7.4, 500 mM NaCl, 0.5% triton X-100, 1 mM DTT, 1 mM EDTA, 20% glycerol, 0.5 mg/ml lysozyme, 10 mM MgCl2, 15 ug/ml deoxyribonuclease I, and Complete TM protease inhibitor tablets (Roche). After addition of the lysis buffer, frozen cell pellets were resuspended using a tissue homogenizer. To reduce the viscosity of the sample, aliquots of the lysate were sonicated on ice using a microtip attached to a Branson sonicator. The sonicated lysate was centrifuged at 100,000×g for 1 hr at 4° C. and filtered through a 0.2 μm filter unit (Corning).
# The protein was purified using three sequential chromatography steps: Heparin sepharose CL-6B, polyU sepharose 4B, and Hitrap SP sepharose (Pharmacia). The chromatography buffers were identical to the lysis buffer but contained no lysozyme, deoxyribonuclease I, MgCl2 or protease inhibitor and the NaCl concentration of the buffer was adjusted according to the requirements for charging the protein onto the column. Each column was eluted with a NaCl gradient which varied in length from 5-50 column volumes depending on the column type. After the final chromatography step, the resulting purity of the enzyme is >90% based on SDS-PAGE analysis. The enzyme was aliquoted and stored at −80° C.
# Standard HCV NS5B RdRp Enzyme Assay.
# HCV RdRp genotype 1b assays were run in a final volume of 60 μl in 96 well plates (Costar 3912). The assay buffer is composed of 20 mM Hepes, pH 7.5, 2.5 mM KCl, 2.5 mM MgCl2, 1 mM DTT, 1.6 U RNAse inhibitor (Promega N2515), 0.1 mg/ml BSA (Promega R3961), and 2% glycerol. All compounds were serially diluted (3-fold) in DMSO and diluted further in water such that the final concentration of DMSO in the assay was 2%. HCV RdRp genotype 1b enzyme was used at a final concentration of 28 nM. A polyA template was used at 6 nM, and a biotinylated oligo-dT12 primer was used at 180 nM final concentration. Template was obtained commercially (Amersham 27-4110). Biotinylated primer was prepared by Sigma Genosys. 3H-UTP was used at 0.6 μCi (0.29 μM total UTP). Reactions were initiated by the addition of enzyme, incubated at 30° C. for 60 min, and stopped by adding 25 μl of 50 mM EDTA containing SPA beads (4 μg/μl, Amersham RPNQ 0007). Plates were read on a Packard Top Count NXT after >1 hr incubation at room temperature.
# Modified HCV NS5B RdRp Enzyme Assay.
# A modified enzyme assay was performed essentially as described for the standard enzyme assay except for the following: The biotinylated oligo dT12 primer was precaptured on streptavidin-coated SPA beads by mixing primer and beads in assay buffer and incubating at room temperature for one hour. Unbound primer was removed after centrifugation. The primer-bound beads were resuspended in 20 mM Hepes buffer, pH 7.5 and used in the assay at final concentrations of 20 nM primer and 0.67 μg/μl beads. Order of addition in the assay: enzyme (14 nM) was added to diluted compound followed by the addition of a mixture of template (0.2 nM), 3H-UTP (0.6 μCi, 0.29 μM), and primer-bound beads, to initiate the reaction; concentrations given are final. Reactions were allowed to proceed for 4 hours at 30° C.
# IC50 values for compounds were determined using seven different [I]. […]
# HCV replicon cells = experiment: HCV replicon FRET assay; format: cell-based; details: Hepatitis C virus
# From the text: To perform the HCV FRET screening assay, 96-well cell culture plates were used. The FRET peptide (Anaspec, Inc.) (Taliani et al., Anal. Biochem. 1996, 240, 60-67) contains a fluorescence donor, EDANS, near one end of the peptide and an acceptor, DABCYL, near the other end. The fluorescence of the peptide is quenched by […] resonance energy transfer (RET) between the donor and the acceptor, but as the NS3 protease cleaves the peptide the products are released from RET quenching and the fluorescence of the donor becomes apparent. The assay reagent was made as follows: 5× cell Luciferase cell culture lysis reagent from Promega (#E153A) diluted to 1× with dH2O, NaCl added to 150 mM final, the FRET peptide diluted to 20 uM final from a 2 mM stock.
# To prepare plates, HCV replicon cells, with or without a Renilla luciferase reporter gene, were trypsinized and placed into each well of a 96-well plate with titrated test compounds added in columns 3 through 12; columns 1 and 2 contained a control compound (HCV protease inhibitor), and the bottom row contained cells without compound. The plates were then placed in a CO2 incubator at 37° C.
# Subsequent to addition of the test compounds described above (FRET Assay Preparation), at various times the plate was removed and Alamar blue solution (Trek Diagnostics, #00-100) was added per well as a measure of cellular toxicity. After reading in a Cytoflour 4000 instrument (PE Biosystems), plates were rinsed with PBS and then used for FRET assay by the addition of 30 ul of the FRET peptide assay reagent described above (FRET Assay Preparation) per well. The plate was then placed into the Cytoflour 4000 instrument which had been set to 340 excite/490 emission, automatic mode for 20 cycles and the plate read in a kinetic mode. Typically, the signal to noise using an endpoint analysis after the reads was at least three-fold. Alternatively, after Alamar blue reading, plates were rinsed with PBS, 50 ul of DMEM (high glucose) without phenol red was added and plates were then used for luciferase assay using the Promega Dual-Glo Luciferase Assay System.
# Compound analysis was determined by quantification of the relative HCV replicon inhibition and the relative cytotoxicity values. To calculate cytoxicity values, the average Alamar Blue fluorescence signals from the control wells were set as 100% non-toxic. The individual signals in each of the compound test wells were then divided by the average control signal and multiplied by 100% to determine […]. To calculate the HCV replicon inhibition values, an average background value was obtained from the two wells containing the highest amount of HCV protease inhibitor at the end of the assay period. These numbers were similar to those obtained from naïve Huh-7 cells.
# The background numbers were then subtracted from the average signal obtained from the control wells and this number was used as 100% activity. The individual signals in each of the compound test wells were then divided by the averaged control values after background subtraction and multiplied by 100% to determine percent activity. EC50 values for a protease inhibitor titration were calculated as the concentration which caused a 50% reduction in FRET or luciferase activity. The two numbers generated for the compound plate, percent cytoxicity and percent activity were used to determine compounds of interest for further analysis.
# T1 sequence (Q9WMX2 2420-2992): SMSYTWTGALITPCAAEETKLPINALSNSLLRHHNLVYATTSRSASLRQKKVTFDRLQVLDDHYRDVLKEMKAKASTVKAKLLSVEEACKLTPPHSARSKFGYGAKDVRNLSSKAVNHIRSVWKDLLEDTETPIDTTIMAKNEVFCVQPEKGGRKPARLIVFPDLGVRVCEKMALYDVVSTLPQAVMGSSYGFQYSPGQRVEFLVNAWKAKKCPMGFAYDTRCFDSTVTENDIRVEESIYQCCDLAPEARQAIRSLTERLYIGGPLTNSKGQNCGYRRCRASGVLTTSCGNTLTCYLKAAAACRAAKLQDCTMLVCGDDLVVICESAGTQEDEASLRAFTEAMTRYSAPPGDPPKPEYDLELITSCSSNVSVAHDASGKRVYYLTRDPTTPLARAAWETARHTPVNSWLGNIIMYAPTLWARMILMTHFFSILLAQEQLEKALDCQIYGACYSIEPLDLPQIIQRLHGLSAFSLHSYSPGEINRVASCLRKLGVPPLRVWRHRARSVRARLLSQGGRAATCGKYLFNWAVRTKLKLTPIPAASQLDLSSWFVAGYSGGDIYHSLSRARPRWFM
SMILES,IC50 [1] [nM],EC50 (HCV replicon cells) [nM]
"Cc1cn2c(n1)Cn1c(c(C3CCCCC3)c3ccc(C(=O)O)cc31)-c1ccccc1-2 [Example 7, 10-Cyclohexyl-2-methyl-4H-imidazo[1,2-a]indolo[1,2-d][1,4]benzodiazepine-7-carboxylic acid]",130,2850
"CN(C)S(=O)(=O)NC(=O)c1ccc2c(C3CCCCC3)c3n(c2c1)Cc1nccn1-c1ccccc1-3 [Example 6, 10-Cyclohexyl-N-((dimethylamino)sulfonyl)-4H-imidazo[1,2-a]indolo[1,2-d][1,4]benzodiazepine-7-carboxamide]",19,390
"Cc1nnc2n1-c1ccccc1-c1c(C3CCCCC3)c3ccc(C(=O)NS(=O)(=O)N(C)C)cc3n1C2 [Example 4, 10-Cyclohexyl-N-((dimethylamino)sulfonyl)-1-methyl-4H-indolo[1,2-d][1,2,4]triazolo[4,3-a][1,4]benzodiazepine-7-carboxamide]",54,320
"O=C(O)c1ccc2c(C3CCCCC3)c3n(c2c1)Cc1nncn1-c1ccccc1-3 [Example 1, 10-Cyclohexyl-4H-indolo[1,2-d][1,2,4]triazolo[4,3-a][1,4]benzodiazepine-7-carboxylic acid]",140,910
"O=C(O)c1ccc2c(C3CCCCC3)c3n(c2c1)Cc1nccn1-c1ccccc1-3 [Example 5, 10-Cyclohexyl-4H-imidazo[1,2-a]indolo[1,2-d][1,4]benzodiazepine-7-carboxylic acid]",26,740
"Cc1nnc2n1-c1ccccc1-c1c(C3CCCCC3)c3ccc(C(=O)O)cc3n1C2 [Example 3, 10-Cyclohexyl-1-methyl-4H-indolo[1,2-d][1,2,4]triazolo[4,3-a][1,4]benzodiazepine-7-carboxylic acid]",170,770
"Cc1cn2c(n1)Cn1c(c(C3CCCCC3)c3ccc(C(=O)NS(=O)(=O)N(C)C)cc31)-c1ccccc1-2 [Example 8, 10-Cyclohexyl-N-((dimethylamino)sulfonyl)-2-methyl-4H-imidazo[1,2-a]indolo[1,2-d][1,4]benzodiazepine-7-carboxamide]",33,710
"CN(C)S(=O)(=O)NC(=O)c1ccc2c(C3CCCCC3)c3n(c2c1)Cc1nncn1-c1ccccc1-3 [Example 2, 10-Cyclohexyl-N-((dimethylamino)sulfonyl)-4H-indolo[1,2-d][1,2,4]triazolo[4,3-a][1,4]benzodiazepine-7-carboxamide]",20,160

# Source: patent publication US8431568B2, “Aromatic heterocyclic fused indolobenzadiazepine HCV NS5B inhibitors” (Bristol-Myers Squibb Company, priority 2008, dated 2013)
